Measured values as given in BigSolDB 2.1.

CC1=NN(c2ccccc2)C(=O)C1
solubility (mole fraction)
Details | 283.15 K | 288.15 K | 293.15 K | 298.15 K | 303.15 K | 313.15 K | 323.15 K
in 1,4-dioxane | – | 0.027 | 0.0341 | – | 0.0483 | 0.0669 | 0.1
in acetone | 0.0167 | – | 0.0254 | – | 0.0371 | 0.0563 | 0.108
in acetonitrile | 0.00788 | – | 0.0126 | – | 0.019 | 0.0284 | 0.0438
in dichloromethane | 0.0447 | 0.0499 | 0.0582 | 0.0688 | 0.0788 | – | –
in ethanol | 0.0176 | – | 0.024 | – | 0.0339 | 0.0457 | 0.0597
in ethyl acetate | 0.0131 | – | 0.0159 | – | 0.0198 | 0.0335 | 0.0545
in isobutanol | 0.0153 | – | 0.0218 | – | 0.0288 | 0.0398 | 0.0573
in isopropanol | 0.0135 | – | 0.0186 | – | 0.0268 | 0.0356 | 0.0514
in methanol | 0.0194 | – | 0.0278 | – | 0.0402 | 0.0562 | 0.0833
in n-butanol | 0.0194 | – | 0.0272 | – | 0.0372 | 0.0504 | 0.0703
in n-pentanol | 0.0245 | – | 0.0285 | – | 0.0381 | 0.05 | 0.069
in n-propanol | 0.0149 | – | 0.025 | – | 0.0344 | 0.0494 | 0.0689
in sec-butanol | 0.0156 | – | 0.0218 | – | 0.0296 | 0.0404 | 0.0579
in water | 0.000153 | – | 0.000163 | – | 0.000174 | 0.000189 | 0.00021
